Experimental findings from the pKa sets of Baltruschat and Czodrowski (2020) are described below.

For the first data set the following is noted: acidic group.
One may read the pKa as the negative logarithm of the acid dissociation constant. A low value points to a group that gives up its proton readily. `Cc1cccc2oc(=O)cc(O)c12`: the pKa turned out to be 4.2.
`COc1ccc(C(=O)O[C@H]2O[C@@H](C(=O)O)[C@H](O)[C@@H](O)[C@@H]2O)cc1OC` registered a pKa of 3.47.
`O=C(O)[C@H](P)CC[C@H](P)C(=O)O` gave a pKa of 3.54.
As for `O=C([O-])C(CO)NCc1ccccc1O` (stereo not given), the pKa worked out at 10.4.
The compound `[NH3+]CCNC(=S)S` returned a pKa of 2.
`CCC1(CC)SC(=O)NC1=O` registered a pKa of 6.42.
In the case of `Cc1cc(/N=N/c2nc3ccccc3s2)c2cccnc2c1O`, the pKa amounted to 7.5.
`CC(C)Nc1ncnc2[nH]ncc12` registered a pKa of 11.
As for `O=C1CCCCC1=O`, the pKa worked out at 10.3.
Same read-out and setting: to `CCCc1c(-c2ccccc2)n[nH]c1O` belongs 8; to `Cc1cc(O)ccc1C(=O)O`, 4.71.
In turn, `O=[Se](O)c1ccc2ccccc2c1` came in with a pKa of 4.67.
Same read-out and setting: to `Cn1c(=O)[nH]c(=O)c2[nH]cnc21` belongs 8.49; to `Cc1cc(O)ccc1[S+](C)C`, 7.6.
Same read-out and setting: to `[NH3+]CCCCC(=O)O` belongs 4.26.
Same read-out and setting: to `Cc1cc(/N=N/c2ccc(S(N)(=O)=O)cc2)cc(C(=O)O)c1O` belongs 2.25; to `Cc1c(Cl)ccc2c1nnn2O`, 4.09; to `CCO/C(C)=N/O`, 11.4.
`C[n+]1ccccc1S` displayed a pKa of -1.42.
The compound `COc1cc(C=O)ccc1O` registered a pKa of 7.38.
On the same count and under the same terms, to `C[NH+](C)CC(=O)O` belongs 1.99; to `COc1ccccc1/C=C\C(=O)O`, 4.27.
On the same count and under the same terms, to `CC(C)(O)C(=O)O` belongs 4.04.
On the same count and under the same terms, to `CC/C=C/Cc1[nH+]ccn1[C@H](C(=O)O)C(C)(C)S` belongs 2; to `CCCCSC(=N)c1ccccc1`, 8.21; to `O=C1NC(=O)/C(=C/c2ccccc2)N1`, 8.6.
As to `Cn1n[n+](C)nc1N`, the pKa turned out to be 2.5.
`O=C(O)c1ccc[nH+]c1` had a pKa of 2.03.
The same measure, in the same setting: for `COc1ccc(B(O)O)cc1` the value was 9.32; for `O=[N+]([O-])c1ccc([Se](=O)O)cc1`, 4.
The same measure, in the same setting: for `Cc1cc(C(F)(F)F)n[nH]1` the value was 12.3.
On the same count and under the same terms, for `C[n+]1c(N)ccnc1[O-]` the value was 13.5; for `O=C(O)/C=C/c1ccoc1`, 4.31; for `C=Cc1ccc(O)cc1`, 9.91.
On to `CC(C#N)(CC(=O)O)c1ccccc1` (stereo not given), for which the pKa came out at 3.99.
Compound `O=C(O)c1csc(Cl)c1` showed a pKa of 3.8.
Take `Oc1ccc2cn[nH]c2c1`: the pKa was found to be 9.35.
`Cc1cc(C(C)C)cc(C)c1O` registered a pKa of 10.9.
For the compound `COc1ccc2c(c1)[nH]c1c(C)nccc12`, the pKa came out at 13.5.
On the same count and under the same terms, to `O=C(O)c1c2ccccc2[nH+]c2ccccc12` belongs 3; to `NC(=O)CN(CCN(CC(N)=O)Cc1ccccc1O)Cc1ccccc1[O-]`, 11; to `CC1CCC(=O)C1=O` (stereo not given), 9.6.
`Cc1ccc(C)c(C(=O)C(=O)O)c1` gave a pKa of 1.45.
The compound `CNC(=O)CS` registered a pKa of 8.05.
Same read-out and setting: for `O=S1(=O)Nc2cccc3cccc1c23` the value was 6.2; for `CO[n+]1ccccc1O`, -1.3; for `Cc1cc(=O)oc2ccc(O)cc12`, 9.14.

Staying with this data set, now noted: basic group.
`CCCCN(CCCC)c1ccc([N+](=O)[O-])cc1` registered a pKa of 1.08.
Regarding `OCC[NH+](CCO)Cc1nc2ccccc2[nH]1`, the pKa is 2.15.
`O=C([O-])C(CO)NCc1ccccc1O` (stereo not given) displayed a pKa of 8.22.
Still for that read-out and setting: to `NNCCCc1ccccc1` belongs 7.2; to `CC(C)Nc1ncnc2[nH]ncc12`, 4.62.
On the same count and under the same terms, for `c1ccc(CNc2nccs2)cc1` the value was 5.15.
Turning to `OCCc1cccnc1`, the pKa amounted to 5.38.
The same measure, in the same setting: for `Cn1c(=O)[nH]c(=O)c2[nH]cnc21` the value was 0.78; for `c1ccc(Oc2ccccn2)cc1`, 2.35.
The same measure, in the same setting: for `COc1nc2ccccc2nc1C` the value was 1.38; for `CCOC(=O)CCCc1ccccn1`, 5.32.
On the same count and under the same terms, for `COCCNc1cccc(C)c1` the value was 4.29; for `Nc1cc2c(cc1Br)CCCC2`, 3.05; for `CC(=O)c1cccc(N)c1`, 3.61.
In the case of `N[C@H]1CC(=O)NC1=O`, the pKa was 9.
`NCc1cc(Cl)ccc1[N+](=O)[O-]` gave a pKa of 8.19.
Same read-out and setting: for `Nc1nc([Se-])c2ncn([C@H]3O[C@@H](CO)[C@H](O)[C@@H]3O)c2n1` the value was 7.68.
In turn, `CCNc1ccc(C)cc1` displayed a pKa of 5.72.
In the case of `Cc1cnc([O-])nc1N`, the pKa amounted to 12.4.
Still for that read-out and setting: to `N#CC(CCN1CCOCC1)(c1ccccc1)c1ccccc1` belongs 6.09; to `[O-]c1ccnc([S-])[nH+]1`, 7.75.
In the case of `O=[N+]([O-])c1ccc2[nH]c(CCl)nc2c1`, the pKa is 2.21.
On the same count and under the same terms, for `CCOC(=O)C[C@H](N)c1ccccc1` the value was 8.32; for `CCCNCCC`, 11.
Same read-out and setting: for `Cc1ccc(C2CCCN2)cc1` (stereo not given) the value was 9.99; for `CC1(C)[C@@H](N)[C@@H]1[NH3+]`, 5.97; for `CCn1cncn1`, 2.39.
`O=C(O)c1ccc[nH+]c1` came in with a pKa of -2.4.
For `CC(C)S(=O)(=O)n1c(N)nc2ccc(/C(=C/C(N)=O)c3cccc(F)c3)cc21`, the pKa turned out to be 3.41.
As to `CCNc1ccnc([S-])n1`, the pKa worked out at 11.1.
For `COc1ccc(S(=O)(=O)CCN2CCCCC2)c(OC)c1OC`, the pKa was determined as 7.24.
On the same count and under the same terms, to `NC(=S)C(N)Cc1ccccc1` (stereo not given) belongs 7.15; to `C1CCN(CCCN2CCCCC2)CC1`, 10.1; to `NC(c1ncc[nH]1)c1ncc[nH]1`, 6.49.
Compound `CC1CN(C)CC[NH+]1C` (stereo not given) yielded a pKa of 3.93.
Compound `Cc1cc(C(F)(F)F)n[nH]1` returned a pKa of -0.5.
`C[n+]1c(N)ccnc1[O-]` came in with a pKa of 7.38.
Same read-out and setting: to `NCCCCCCBr` belongs 10.6; to `C[NH+](C)CCC/N=C(\c1ccccc1)c1cccc2ccccc12`, 4.16.
Still for that read-out and setting: to `Cc1cc(-c2[nH]cc[nH+]2)nn1C` belongs 2; to `CC[NH+](CC)CCN`, 6.76.
In the case of `Nc1cc[nH+]c([S-])n1`, the pKa was found to be 3.32.
Turning to `COc1ccc2c3c1O[C@H]1[C@@H](O)C=C[C@H]4[C@@H](C2)N(C)CC[C@@]341`, the pKa came out at 8.05.
The same measure, in the same setting: for `CCc1cc(-c2ccccc2)nnc1NCCN1CCOCC1` the value was 7.08.
`COc1ccc2c(c1)[nH]c1c(C)nccc12` yielded a pKa of 7.73.
In turn, `O=C([O-])CC(c1ncc[nH]1)c1[nH]cc[nH+]1` gave a pKa of 4.62.
Compound `Nc1c2ccccc2nc2c(N)cccc12` registered a pKa of 9.3.
In turn, `[NH3+]C(c1ncc[nH]1)c1ncc[nH]1` displayed a pKa of 4.07.
The same measure, in the same setting: to `CCNCC(=O)c1ccc(O)cc1` belongs 7.77.
Still for that read-out and setting: to `COc1cc2c(cc1OC)NCC2` belongs 7.3; to `CCN(CC)CCOCCN(C)C`, 10.2.
Still for that read-out and setting: to `CC(C)[NH2+]CC(O)c1cccc(N)c1` (stereo not given) belongs 4.22; to `Cc1cnc2c(ccc3cc(C)cnc32)c1`, 5.23.
In turn, `CC(=O)CCCCN(C)C` registered a pKa of 9.66.
In turn, `CN(C)S(=O)(=O)c1ccc(N)cc1` came in with a pKa of 1.53.
Same read-out and setting: to `CN(C1=NCCCO1)c1ccccc1` belongs 10.7; to `OCCc1cnc(P(c2ncc(CCO)[nH]2)c2[nH]c(CCO)c[nH+]2)[nH]1`, 6.84.
For the compound `CC[Si](C)(C)CN`, the pKa turned out to be 10.7.
